{"source": "patent US8278086B2", "about": "“Enhancement of vanadium-containing phosphatase inhibitors” (Roche Diagnostics Operations, Inc., priority 2007, dated 2012)", "key": {"[1]": {"system": "phosphatase", "details": "in the presence of complex-forming reagents like EDTA; cited from earlier work"}, "[2]": {"system": "phosphatases in COS7 cell lysate", "experiment": "Inhibition of phosphatases in COS7 cell lysate", "type": "biochemical", "details": "1 mM orthovanadate (alone or with 27 mM mannitol), FIG. 5", "protocol": "COS7 cells were collected, washed 3 times with 50 mM Hepes, 50 mM NaCl pH 7.0 and lysed using 5 ml M-Per (Pierce) for 10 min. After centrifugation the lysate was collected as the supernatant.\n(§1) Subsequently, an aliquot of 10 μl was transferred from each mixture to a microwell plate. 5 μl of a solution of a test peptide (R-R-L-I-E-D-A-E-pY-A-A-R-G (SEQ ID NO: 1); 1 mM in water) and 10 μl of a buffer containing 0.1 mM CaCl2, 50 mM Tris pH 7.0 were added to each well and incubated for 30 min at 37° C. Free phosphate resulting from the enzymatic hydrolysis was then detected via addition of 100 μl of a 1M HCl solution additionally containing 0.034% [w/v] malachite green, 10 mM sodium molybdate and 3.4 [v/v] ethanol. The detection was performed for 10 min at RT while constantly agitating the microwell plate. Relative concentrations of free phosphate were detected following the determination of the extinction (620 nm) of each reaction well."}, "[3]": {"system": "phosphatases in insect cell (SF9) lysate", "experiment": "Inhibition of phosphatases in insect cell lysate", "type": "biochemical", "details": "1 mM orthovanadate (alone or with 27 mM mannitol), FIG. 4", "protocol": "270 mg insect cells (SF9) were collected, washed 3 times with 50 mM Hepes, 50 mM NaCl pH 7.0 and lysed using 2.5 ml M-Per (Pierce) for 10 min. After centrifugation the lysate was collected as the supernatant.\nas §1, with “mixture into a well of” for “mixture to”, “a 1 M” for “a 1M”, “and 3.4%” for “and 3.4”"}}}
{"compound": "[O]=[V]([O-])([O-])[O-]", "note": "[Na3VO4, orthovanadate]", "values": [{"measurement": "factor by which the phosphatase inhibiting effect is reduced", "setting": "[1]", "value": "about 1,000"}, {"measurement": "phosphatase activity (residual)", "setting": "[2]", "value": 52, "unit": "%"}, {"measurement": "phosphatase activity (residual)", "setting": "[3]", "value": 14, "unit": "%"}]}
